These are literature values, as cited in patent US6676951B1, “Host-guest processes and formulations for delivering bio-affecting compounds” (priority 1999, dated 2004).

The structures appear in SMILES notation.

The conditions of this data set: C=O bond external to the ring.

For `O=C1O[C@H]([C@@H](O)CO)C(O)=C1O` [ascorbic acid, L-ascorbic acid], the “pKa of the C=O external to the ring structure” value is 4.5.
